Tests used:
[1] = test system: Pseudomonas aeruginosa (ATCC#15442, ATCC#10145), Enterobacter aerogenes, Escherichia coli, Klebsiella pneumoniae, Staphylococcus aureus, Salmonella …; assay: Preservative efficacy (multi-challenge, 96-deep well) in water-based latex paint, pH 7.4; format: cell-based
[2] = test system: Pseudomonas aeruginosa (ATCC#15442, ATCC#10145), Enterobacter aerogenes, Escherichia coli, Klebsiella pneumoniae, Staphylococcus aureus, Salmonella …; assay: Preservative efficacy (multi-challenge, 96-deep well) in spinning finish emulsion; format: cell-based; details: Day 27, post 4th microbial challenge; ppm active
[3] = Day 20, after four bacterial challenges, ppm active
[4] = Day 15, after four bacterial challenges, ppm active

Compound: CCC12COCN1COC2 [EBCO, 7-Ethyl-bicyclooxazolidine]
- EBCO alone (ppm), concentration required for ≧4 log10 microbial kill [1, 3]: 1920 ppm
- log10 viable microorganisms, EBCO alone score ([1]; Day 20, EBCO 112 ppm): 8 log10
- log10 viable microorganisms, EBCO alone score ([1]; Day 20, EBCO 169 ppm): 8 log10
- log10 viable microorganisms, EBCO alone score ([1]; Day 20, EBCO 252 ppm): 8 log10
- log10 viable microorganisms, EBCO alone score ([1]; Day 20, EBCO 379 ppm): 7 log10
- log10 viable microorganisms, EBCO alone score ([1]; Day 20, EBCO 569 ppm): 7 log10
- log10 viable microorganisms, EBCO alone score ([1]; Day 20, EBCO 853 ppm): 8 log10
- log10 viable microorganisms, EBCO alone score ([1]; Day 20, EBCO 1280 ppm): 7 log10
- log10 viable microorganisms, EBCO alone score ([1]; Day 20, EBCO 1920 ppm): 0 log10

Compound: O=[N+]([O-])C(CO)(CO)CO [TN, 2-Hydroxymethyl-2-nitro-1,3-propanediol]
- TN alone (ppm), concentration necessary for ≧6 log10 microbial kill [2]: 592 ppm

Compound: CC(=O)OC1CC(C)OC(C)O1 (stereo not shown) [DMX, 2,6-Dimethyl-m-dioxan-4-ol acetate]
- DMX alone (ppm), concentration necessary for ≧6 log10 microbial kill [2]: 1339 ppm
- DMX alone (ppm), concentration required for ≧4 log10 microbial kill [1, 4]: 1740 ppm
- log10 viable microorganisms, DMX alone ([1]; Day 15, DMX 102 ppm): 7 log10
- log10 viable microorganisms, DMX alone ([1]; Day 15, DMX 153 ppm): 7 log10
- log10 viable microorganisms, DMX alone ([1]; Day 15, DMX 229 ppm): 8 log10
- log10 viable microorganisms, DMX alone ([1]; Day 15, DMX 344 ppm): 8 log10
- log10 viable microorganisms, DMX alone ([1]; Day 15, DMX 516 ppm): 7 log10
- log10 viable microorganisms, DMX alone ([1]; Day 15, DMX 773 ppm): 8 log10
- log10 viable microorganisms, DMX alone ([1]; Day 15, DMX 1160 ppm): 5 log10
- log10 viable microorganisms, DMX alone ([1]; Day 15, DMX 1740 ppm): 0 log10
- DMX alone (ppm), concentration required for ≧4 log10 microbial kill [1, 3]: 1740 ppm
- log10 viable microorganisms, DMX alone ([1]; Day 20, DMX 102 ppm): 8 log10
- log10 viable microorganisms, DMX alone ([1]; Day 20, DMX 153 ppm): 8 log10
- log10 viable microorganisms, DMX alone ([1]; Day 20, DMX 229 ppm): 8 log10
- log10 viable microorganisms, DMX alone ([1]; Day 20, DMX 344 ppm): 8 log10
- log10 viable microorganisms, DMX alone ([1]; Day 20, DMX 516 ppm): 8 log10
- log10 viable microorganisms, DMX alone ([1]; Day 20, DMX 773 ppm): 8 log10
- log10 viable microorganisms, DMX alone ([1]; Day 20, DMX 1160 ppm): 8 log10
- log10 viable microorganisms, DMX alone ([1]; Day 20, DMX 1740 ppm): 4 log10

Compound: CC1(C)COCN1 [DMO, 4,4-Dimethyloxazolidine]
- DMO alone (ppm), concentration necessary for ≧6 log10 microbial kill [2]: 355 ppm
- DMO alone (ppm), concentration required for ≧4 log10 microbial kill [1, 4]: 308 ppm
- log10 viable microorganisms, DMO alone score ([1]; Day 15, DMO 91 ppm): 8 log10
- log10 viable microorganisms, DMO alone score ([1]; Day 15, DMO 137 ppm): 7 log10
- log10 viable microorganisms, DMO alone score ([1]; Day 15, DMO 205 ppm): 6 log10
- log10 viable microorganisms, DMO alone score ([1]; Day 15, DMO 308 ppm): 0 log10
- log10 viable microorganisms, DMO alone score ([1]; Day 15, DMO 463 ppm): 0 log10
- log10 viable microorganisms, DMO alone score ([1]; Day 15, DMO 693 ppm): 0 log10
- log10 viable microorganisms, DMO alone score ([1]; Day 15, DMO 1040 ppm): 0 log10
- log10 viable microorganisms, DMO alone score ([1]; Day 15, DMO 1560 ppm): 0 log10

Compound: ClC=CC[N+]12CN3CN(CN(C3)C1)C2.[Cl-] [CTAC]
- CTAC alone (ppm), concentration necessary for ≧6 log10 microbial kill [2]: 582 ppm

— patent publication US20120004272A1, “BIOCIDAL COMPOSITION OF 2,6-DIMETHYL-M-DIOXANE-4-OL ACETATE AND METHODS OF USE” (priority 2009, published 2012)
